Assay [1] has as its target T1, wild-type Epidermal Growth Factor Receptor (EGFR) (Homo sapiens, UniProt P00533).
T1 construct: a fragment of human EGFR (amino acids R669 to A1210); made in house; host or cells: Sf9 insect cells
The experiment in a line: WT-EGFR Kinase Assay (TR-FRET, 2 mM ATP). The class given is biochemical. An excerpt: Inhibitory activity of compounds of the present invention against wild-type Epidermal Growth Factor Receptor (EGFR) was quantified employing the TR-FRET based EGFR assay as described in the following paragraphs.
Recombinant fusion protein of N-terminal Glutathion-S-Transferase (GST) and a fragment of human EGFR (amino acids R669 to A1210), expressed in Sf9 insect cells and purified via affinity chromatography using Glutathion Sepharose as described above, was used as kinase. As substrate for the kinase reaction the biotinylated peptide biotin-Ahx-[…] (C-terminus in amide form) was used which can be purchased e.g. form the company Biosynthan GmbH (Berlin-Buch, Germany).
For the assay 50 nl of a 100 fold concentrated solution of the test compound in DMSO was pipetted into either a black low volume 384 well microtiter plate or a black 1536 well microtiter plate (both Greiner Bio-One, Frickenhausen, Germany), 2 μL of a solution of EGFR in aqueous assay buffer [50 mM Hepes pH 7.0, 10 mM MgCl2, 1 mM dithiothreitol, 0.5 mM EGTA, 0.3 mM activated sodium ortho-vanadate, 0.005% (w/v) bovine serum albumin, 0.005% (v/v) Tween-20] were added and the mixture was incubated for 15 min at 22° C. to allow pre-binding of the test compounds to the enzyme before the start of the kinase reaction. […] The concentration of EGFR was adjusted depending of the activity of the enzyme lot and was chosen appropriate to have the assay in the linear range, typical concentration was 7.6 pg/μL. The reaction was stopped by the addition of 3 μL of a solution of HTRF detection reagents (83.3 nM streptavidine-XL665 [Cisbio Bioassays, Codolet, France] and 1.67 nM PT66-Tb-Cryptate, a terbium-cryptate labelled anti-phospho-tyrosine antibody from Cisbio Bioassays [instead of the PT66-Tb-cryptate PT66-Eu-Chelate from Perkin Elmer can also be used]) in an aqueous EDTA-solution (133.3 mM EDTA, 0.2% (w/v) bovine serum albumin in 50 mM HEPES pH 7.5).
The resulting mixture was incubated 1 h at 22° C. to allow the binding of the biotinylated phosphorylated peptide to the streptavidine-XL665 and the PT66-Tb-Cryptate. Subsequently the amount of phosphorylated substrate was evaluated by measurement of the resonance energy transfer from the PT66-Tb-Cryptate to the streptavidine-XL665. Therefore, the fluorescence emissions at 620 nm and 665 nm after excitation at 337 nm were measured in a HTRF reader, e.g. a Pherastar (BMG Labtechnologies, Offenburg, Germany) or a Viewlux (Perkin-Elmer). The ratio of the emissions at 665 nm and at 622 nm was taken as the measure for the amount of phosphorylated substrate.

The target in another assay is T2, full-length human CSNK1D (Homo sapiens, UniProt P48730).
T2 construct: N-terminal Glutathion-S-Transferase (GST) and full-length human CSNK1D; purchased Life Technologies PV3665; host or cells: baculovirus infected insect cells
The experiment in a line: CSNK1D Assay (ADP-Glo, 1 μM ATP). The note with it: Table 3, read-out: CSNK1D IC50 [mol/l] (median). The class given is biochemical. The protocol:
CSNK1D-inhibitory activity of compounds of the present invention in presence of 1 μM adenosine-tri-phosphate (ATP) was quantified employing the CSNK1 D assay as described in the following paragraphs. In essence, the enzyme activity is measured by quantification of the adenosine-di-phosphate (ADP), which is generated as a co-product of the enzyme reaction, via the “ADP-Glo™ Kinase Assay” kit from the company Promega. This detection system works as follows: In a first step the ATP not consumed in the kinase reaction is quantitatively converted to cAMP employing an adenylate cyclase (“ADP-Glo-reagent”), then the adenylate cyclase is stopped and the ADP generated in the kinase reaction converted to ATP which generates in a luciferase-based reaction a glow-luminescence signal (“Kinase Detection Reagent”).
Recombinant fusion protein of N-terminal Glutathion-S-Transferase (GST) and full-length human CSNK1D, expressed by baculovirus infected insect cells and purified via Glutathion affinity chromatography, was purchased from Life Technologies (product no. PV3665) and used as enzyme. As substrate for the kinase reaction the biotinylated peptide Btn-Ahx-[…] (C-terminus in amide form) was used which can be purchased e.g. from the company Biosyntan (Berlin-Buch, Germany).
For the assay 50 nl of a 100 fold concentrated solution of the test compound in DMSO was pipetted into a white 1536-well microtiter plate (Greiner Bio-One, Frickenhausen, Germany), 2 μL of a solution of CSNK1D in aqueous assay buffer [50 mM HEPES pH 7.5, 10% (v/v) glycerol, 10 mM MgCl2, 50 mM NaCl, 1 mM dithiothreitol, 0.01% (w/v) bovine serum albumin, 0.01% (v/v) Triton X-100] were added and the mixture was incubated for 15 min at 22° C. to allow pre-binding of the test compounds to the enzyme before the start of the kinase reaction. […] The concentration of CSNK1D was adjusted depending of the activity of the enzyme lot and was chosen appropriate to have the assay in the linear range, a typical concentration is about 0.5 ng/μL. The reaction was stopped by the addition of 2.5 μL of “ADP-Glo-reagent” (1:1.5 fold diluted with water) and the resulting mixture was incubated at 22° C. for 1 h to convert the ATP not consumed in the kinase reaction completely […]. Subsequently 2.5 μL of the “kinase detection reagent” (1.2 fold more concentrated than recommended by the producer) were added, the resulting mixture was incubated at 22° C. for 1 h and then the luminescence measured with a suitable measurement instrument (e.g. Viewlux™ from Perkin-Elmer). The amount of emitted light was taken as a measure for the amount of ADP generated and thereby for the activity of the CSNK1D.
On the technique in general: ADP-Glo turns the ADP formed in a reaction into a luminescent signal.

Setting [2] is: EGFR Wildtyp 2 mM ATP IC50 [mol/l] (median), Table 4.
Where [3] appears, read: read-out: EGFR Wildtyp 2 mM ATP IC50 [mol/l] (median), Table 4.

For 14 compounds, IC50 results are on record in patent US12692261B2, “Substituted heterocyclic compounds and therapeutic uses thereof” (Bayer Aktiengesellschaft, priority 2020, dated 2026).

Like-named read-outs stand apart in the source and are kept apart here.

T1 sequence (P00533 669-1210): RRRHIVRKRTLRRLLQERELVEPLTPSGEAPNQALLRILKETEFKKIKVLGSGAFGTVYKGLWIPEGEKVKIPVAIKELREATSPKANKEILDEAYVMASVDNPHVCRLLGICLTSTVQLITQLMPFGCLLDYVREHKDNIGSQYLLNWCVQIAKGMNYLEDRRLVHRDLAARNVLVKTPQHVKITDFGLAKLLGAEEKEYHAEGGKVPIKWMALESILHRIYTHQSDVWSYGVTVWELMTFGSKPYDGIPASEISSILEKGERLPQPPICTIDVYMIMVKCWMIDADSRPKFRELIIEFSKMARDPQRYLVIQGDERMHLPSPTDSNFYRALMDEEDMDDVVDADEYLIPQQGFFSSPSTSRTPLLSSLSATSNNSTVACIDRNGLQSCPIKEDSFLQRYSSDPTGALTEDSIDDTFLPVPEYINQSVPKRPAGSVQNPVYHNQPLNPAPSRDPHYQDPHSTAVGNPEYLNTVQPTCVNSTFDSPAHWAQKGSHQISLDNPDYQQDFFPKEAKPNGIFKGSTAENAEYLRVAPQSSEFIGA
T2 sequence (P48730 whole entry): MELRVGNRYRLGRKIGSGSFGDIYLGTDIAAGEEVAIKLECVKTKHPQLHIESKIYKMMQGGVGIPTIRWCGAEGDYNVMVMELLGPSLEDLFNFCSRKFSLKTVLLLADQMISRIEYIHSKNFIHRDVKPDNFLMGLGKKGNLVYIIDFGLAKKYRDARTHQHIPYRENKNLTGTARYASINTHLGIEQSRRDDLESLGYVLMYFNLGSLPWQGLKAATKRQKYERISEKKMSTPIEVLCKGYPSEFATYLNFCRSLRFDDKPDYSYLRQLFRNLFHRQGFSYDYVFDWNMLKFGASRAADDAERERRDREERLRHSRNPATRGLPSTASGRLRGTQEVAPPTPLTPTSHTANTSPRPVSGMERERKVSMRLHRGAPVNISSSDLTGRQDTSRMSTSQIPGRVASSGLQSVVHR

As to `O=C(Nc1cc(-c2[nH]c3cncnc3c2-c2ccccn2)ccn1)C(CC(F)F)c1ccc(F)cc1` (single isomer, unassigned; (-)) [Example 14, (−)-4,4-difluoro-2-(4-fluorophenyl)-N-{4-[7-(pyridin-2-yl)-5H-pyrrolo[3,2-d]pyrimidin-6-yl]pyridin-2-yl}butanamide], the results for the IC50 (in assay [1] (setting [2]); at full-length human CSNK1D) were greater than 20000 nM and 28.5 nM, respectively.
For `O=C(Nc1cc(-c2[nH]c3c(C4CCCO4)cc(F)nc3c2-c2ccccn2)ccn1)C(CC(F)F)c1ccc(F)cc1` (single isomer, unassigned) [Example 115, (2R or S)-4,4-difluoro-N-(4-{5-fluoro-7-[(2R or S)-oxolan-2-yl]-3-(pyridin-2-yl)-1H-pyrrolo[3,2-b]pyridin-2-yl}pyridin-2-yl)-2-(4-fluorophenyl)butanamide] the same measures were 19600 nM and 7.02 nM.
For `O=C(Nc1cc(-c2[nH]c3cccnc3c2-c2ccccn2)ccn1)C(CC(F)F)c1ccc(F)cc1` (racemic) [Example 10, 4,4-difluoro-2-(4-fluorophenyl)-N-{4-[3-(pyridin-2-yl)-1H-pyrrolo[3,2-b]pyridin-2-yl]pyridin-2-yl}butanamide] the same measures were greater than 20000 nM and 4.99 nM.
Take `O=C(Nc1cc(-c2[nH]c3c(OC4CC4)cc(F)nc3c2-c2ccccn2)ccn1)C(CC(F)F)c1ccc(F)cc1` (racemic) [Example 42, (rac)-N-{4-[7-(cyclopropyloxy)-5-fluoro-3-(pyridin-2-yl)-1H-pyrrolo[3,2-b]pyridin-2-yl]pyridin-2-yl}-4,4-difluoro-2-(4-fluorophenyl)butanamide]: the IC50 in assay [1] (setting [2]) was greater than 20000 nM; on full-length human CSNK1D, 14.4 nM.
For `O=C(Nc1cc(-c2[nH]c3c(C4CCCO4)cc(F)nc3c2-c2ccccn2)ccn1)C(CC(F)F)c1ccc(F)cc1` (racemic) [Example 114, (2RS)-4,4-difluoro-2-(4-fluorophenyl)-N-(4-{5-fluoro-3-(pyridin-2-yl)-7-[(2RS)-tetrahydrofuran-2-yl]-1H-pyrrolo[3,2-b]pyridin-2-yl}pyridin-2-yl)butanamide] the same measures were greater than 20000 nM and 8.03 nM.
For `Cc1cnc2c(-c3ccccn3)c(-c3ccnc(NC(=O)C(CC(F)F)c4ccc(F)cc4)c3)[nH]c2c1` (racemic) [Example 7, 4,4-difluoro-2-(4-fluorophenyl)-N-{4-[6-methyl-3-(pyridin-2-yl)-1H-pyrrolo[3,2-b]pyridin-2-yl]pyridin-2-yl}butanamide] the same measures were greater than 20000 nM and 4.13 nM.
For `O=C(Nc1cc(-c2[nH]c3c(OCC4CC4)ncnc3c2-c2ccccn2)ccn1)C(CC(F)F)c1ccc(F)cc1` (single isomer, unassigned) [Example 130, (2R or S)—N-{4-[4-(cyclopropylmethoxy)-7-(pyridin-2-yl)-5H-pyrrolo[3,2-d]pyrimidin-6-yl]pyridin-2-yl}-4,4-difluoro-2-(4-fluorophenyl)butanamide] the same measures were 6670 nM and 55.8 nM.
As to `O=C(Nc1cc(-c2[nH]c3cc(F)cnc3c2-c2ccccc2)ccn1)C(CC(F)F)c1ccc(F)cc1` (single isomer, unassigned; (-)) [Example 20, (−)-4,4-difluoro-2-(4-fluorophenyl)-N-[4-(6-fluoro-3-phenyl-1H-pyrrolo[3,2-b]pyridin-2-yl)pyridin-2-yl]butanamide], the results for the IC50 (in assay [1] (setting [2]); on full-length human CSNK1D) were greater than 20000 nM and 47.8 nM, respectively.
For `O=C(Nc1cc(-c2[nH]c3c(OCC(F)F)cc(F)nc3c2-c2ccccn2)ccn1)C(CC(F)F)c1ccc(F)cc1` (racemic) [Example 28, (2RS)—N-{4-[7-(2,2-difluoroethoxy)-5-fluoro-3-(pyridin-2-yl)-1H-pyrrolo[3,2-b]pyridin-2-yl]pyridin-2-yl}-4,4-difluoro-2-(4-fluorophenyl)butanamide] the same measures were greater than 20000 nM and 4 nM.
In the case of `O=C(Nc1cc(-c2[nH]c3c(OCC(F)(F)F)ncnc3c2-c2ccccn2)ccn1)C(CC(F)F)c1ccc(F)cc1` (single isomer, unassigned) [Example 124, (2R or S)-4,4-difluoro-2-(4-fluorophenyl)-N-{4-[7-(pyridin-2-yl)-4-(2,2,2-trifluoroethoxy)-5H-pyrrolo[3,2-d]pyrimidin-6-yl]pyridin-2-yl}butanamide], the values for the IC50 (in assay [1] (setting [3]); at full-length human CSNK1D) were greater than 20000 nM and 46.6 nM, respectively.
In the case of `Cc1ccc2[nH]c(-c3ccnc(NC(=O)C(CC(F)F)c4ccc(F)cc4)c3)c(-c3ccccn3)c2n1` (racemic) [Example 4, 4,4-difluoro-2-(4-fluorophenyl)-N-{4-[5-methyl-3-(pyridin-2-yl)-1H-pyrrolo[3,2-b]pyridin-2-yl]pyridin-2-yl}butanamide], the IC50 in assay [1] (setting [2]) is greater than 20000 nM; at full-length human CSNK1D, 9.45 nM.
Regarding `Cc1cc2[nH]c(-c3ccnc(NC(=O)C(CC(F)F)c4ccc(F)cc4)c3)c(-c3ccccn3)c2nc1F` (single isomer, unassigned) [Example 34, 4,4-difluoro-N-{4-[5-fluoro-6-methyl-3-(pyridin-2-yl)-1H-pyrrolo[3,2-b]pyridin-2-yl]pyridin-2-yl}-2-(4-fluorophenyl)butanamide], the IC50 in assay [1] (setting [2]) was greater than 20000 nM; on full-length human CSNK1D, 6.86 nM.
On to `O=C(Nc1cc(-c2[nH]c3nccnc3c2-c2ccccn2)ccn1)C(CC(F)(F)F)c1ccc(F)cc1` (single isomer, unassigned) [Example 120, (2R or S)-4,4,4-trifluoro-2-(4-fluorophenyl)-N-{4-[7-(pyridin-2-yl)-5H-pyrrolo[2,3-b]pyrazin-6-yl]pyridin-2-yl}butanamide], for which the IC50 was greater than 20000 nM in assay [1] (setting [2]) and 4.35 nM on full-length human CSNK1D.
Take `O=C(Nc1cc(-c2[nH]c3c(N4CCNCC4)ccnc3c2-c2ccccn2)ccn1)C(CC(F)F)c1ccc(F)cc1` (single isomer, unassigned) [Example 94, (2R or S)-4,4-difluoro-2-(4-fluorophenyl)-N-{4-[7-(piperazin-1-yl)-3-(pyridin-2-yl)-1H-pyrrolo[3,2-b]pyridin-2-yl]pyridin-2-yl}butanamide]: the values for the IC50 (in assay [1] (setting [3]); at full-length human CSNK1D) were greater than 20000 nM and 3.67 nM, respectively.
